Read-outs that look alike come from different tables or passages of the source.
Assays:
Format in all cases: in vivo
[1] = test system: M. chitwoodi J2 larvae; test: Meloidogyne chitwoodi in vitro assays (J2 movement); conditions: 45 μM, 2 days, relative to DMSO control
Procedure: M. incognita (Kofoid & White) Chitwood Race 1 (originally isolated in Maryland) was used for all experiments, and was maintained on pepper (Capsicum annuum L.) cv. PA-136 in a greenhouse as previously described^64. Infective J2 juveniles were collected as described in ref.65. The microwell dose-response experiments were carried out similarly to previously described protocols^64, 66. In brief, 100 J2s, in 10 μL of deionized water, were added to the wells of 96-well polystyrene plates, after which 190 μL of deionized water containing dissolved chemical, or DMSO alone, was added to each well. The chemicals were tested at 45 μM, and the final concentration of DMSO in each well was 0.5% (v/v). The wells were covered with a plastic adhesive strip, and the lids of the plates were sealed with parafilm. The plates were incubated at 25° C. The mobile fraction of worms was quantified by counting the number of mobile and immobile worms after 2 days of incubation, and then dividing the number of mobile worms by the total number of worms in the well. Three technical replicates were performed for each treatment, and an average value for the mobile fraction of worms was calculated across the three replicates. The percent effectiveness at inhibiting nematode movement was calculated by dividing the average value for the chemical treatment by the average value for the DMSO control, then subtracting this value from 1, and then multiplying by 100.
M. chitwoodi race 1 (the strain commonly found in the pacific northwest of the United States) was used for all experiments, and was maintained on tomato plants (Solanum lycopersicum ‘Rutgers’) as previously described^73. The M. chitwoodi in vitro assays were performed identically to the M. incognita in vitro assays (see above).

[2] = test system: M. incognita infective juveniles; test: Meloidogyne incognita dose-response experiments (infective J2 juveniles, FIG. 2); conditions: for nematicidal activity on M. incognita infective juveniles: 5, 15, 45 micromolar, third day after water rinse
Procedure: M. incognita (Kofoid & White) Chitwood Race 1 (originally isolated in Maryland) was used for all experiments, and were maintained on pepper (Capsicum annuum L.) cv. PA-136 in a greenhouse as previously described^64. Infective J2 juveniles were collected as described in ref. 65. The microwell dose-response experiments were carried out similarly to previously described protocols^64, 66. In brief, 100 J2 s, in 10 μL of deionized water, were added to the wells of 96-well polystyrene plates, after which 190 μL of deionized water containing dissolved chemical, or DMSO alone, was added to each well. The final concentration of DMSO in each well was 0.5% (v/v), except for the water only control which contained no DMSO and no added chemicals. The final concentrations of the chemicals for each dose-response experiment were 5, 15, and 45 μM. The wells were covered with a plastic adhesive strip, and the lids of the plates were sealed with parafilm. The plates were incubated at 25° C. The fraction of active worms was quantified by counting the number of mobile and immobile worms after 1 and 2 days of incubation, and then dividing the number of mobile worms by the total number of worms in the well. After 2 days of incubation, the chemicals were removed and replaced with deionized water (i.e. the water rinse) and the fraction of active worms was quantified 1 day later. A failure of the worms to recover after rinsing with water is consistent with them having been killed by the chemical treatment. Four technical replicates were performed for each treatment.

[3] = test system: C. elegans anthelmintic/nematicide-resistant mutants; test: whole plant or invertebrate; conditions: Caenorhabditis elegans
Procedure: Forty microliters of an HB101 bacterial suspension in liquid NGM (see above) was added to each well of a 96-well flat-bottom culture plate, after which approximately 25 synchronized L1 worms, in 10 μl of M9 buffer (see ref. 59 for the recipe), were added to each well. The synchronized L1 worms were obtained from an embryo preparation performed the previous day (see ref. 59 for the protocol). For the L1 assays, 0.5 μl of chemical solution (or DMSO alone) was immediately added to the wells using a multichannel pipette, the final DMSO concentration is 1% (v/v). The worms were incubated for 3 days at 20° C. and the number of viable animals was counted. […] Although the counts were performed after 3 days of incubation in the chemical, it was noted that the L1s were dead within 24 hours of the addition of the chemicals. For the L2/L3 assays, the worms were incubated in the absence of chemical for 1 day at 20° C. until they reached the L2/L3 stage, at which point chemical was added as described above. The worms were then allowed to incubate for 2 days at 20° C. and the number of viable animals was counted as described for the L1 assay. For the L4 assays, the worms were incubated for 2 days at 20° C. before the addition of chemicals. The L4-stage worms were then incubated in chemical for an additional day before quantifying the number of viable animals. The adult assays were performed the same way as the L4 assays, however HT115 E. coli carrying the empty dsRNA expressing vector L4440 was used in place of HB101 and the worms were cultured at 25° C. as opposed to 20° C. for the entirety of the experiment. The HT115 suspension was made by concentrating a bacterial culture, with an OD600 of ˜ 0.8, five-fold with liquid NGM containing 1 mM IPTG and 100 μg/ml carbenicillin. The HT115 cells were induced with 1 mM IPTG for one hour before concentrating with NGM.
The dose-response experiments for the anthelmintic/nematicide-resistant mutants were carried out as described for the L1 dose-response assays. One notable exception is the aldicarb-resistant strain PR1152. This strain grows slowly, and so the viability counts were performed 5 days after addition of the chemical, as opposed to 3 days, to allow the DMSO control worms to reach adulthood.
At least three biological replicates were performed for each dose-response assay. For each biological replicate, two technical replicates were performed and the numbers of viable animals for each technical replicate were combined (i.e. ˜50 worms assayed per concentration). The number of viable worms at each concentration was divided by the corresponding DMSO control value to give the “relative viability” for each concentration. The “relative viability” values were then averaged across the biological replicates. LC50 values were calculated using Graphpad Prism. The concentration values were log-transformed and a four-parameter logistic curve was fitted to the dose-response data by non-linear regression, from which the LC50 values were extracted.

[4] = 120 h, read-out: LC50 in strain PR1152
[5] = read-out: LC50 in strain CB1072
[6] = read-out: LC50 in strain CB3474
[7] = read-out: LC50 in strain CF1038
[8] = read-out: LC50 in strain DA1316
[9] = read-out: LC50 in strain NM1968
[10] = read-out: LC50 in strain RP2674

Structure (SMILES) | % effectiveness at reducing M. chitwoodi movement [1] [%] | nematicidal activity on M. incognita infective juveniles [2] | inhibitory effects on worm activity compared with tioxazafen ([2]; each time point, every concentration tested) | nematode lethality ([2]; lowest concentration assayed (5 micromolar)) [%] | LC50 [3, 4] [µM] | LC50 [3, 5] [µM] | LC50 [3, 6] [µM] | LC50 [3, 7] [µM] | LC50 [3, 8] [µM] | LC50 [3, 9] [µM] | LC50 [3, 10] [µM] | LC50 ([3]; read-out: LC50 in strain VC731) [µM] | LC50 ([3]; read-out: LC50 in strain RB2119) [µM]
Cc1csc2nc(-c3ccccc3)cn12 [Compound Ie] | 24.3 | – | – | – | – | – | – | – | – | – | – | – | –
Clc1ccc(-c2cn3ccsc3n2)cc1 [Ia] | – | demonstrated nematicidal activity at one or more concentrations | outperformed the commercial nematicide tioxazafen | 100 | 3.7 | 5.7 | 6.4 | 5.7 | 4.6 | 4.4 | 4.9 | 6.4 | –
Fc1ccc(-c2cn3ccsc3n2)cc1 [Ib] | 37.5 | demonstrated nematicidal activity at one or more concentrations | – | – | 14.9 | 24.3 | 17 | 16 | 14.5 | 16 | 16.4 | 28.5 | 27.5
